# Calls of active or inactive are those of the source.
# Experiments:
# Streptococcus = assay: GAS UMAA2166 growth inhibition – luminescence, BacTiterGlo, counter-screen for streptokinase expression inhibitor project, dose response (AID 1915); type: functional, organism-based;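 further: potency for reduction of bacterial viability or growth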
# [1] = HPDE-C7 pancreatic duct cell viability loss – fluorescence, HTS (AID 430); type: functional, cell-based; conditions: Homo sapiens
# INS1 = assay: INS-1E survival protection against cytokine death – cell-based, luminescence, retest, dose response (AID 449756); type: functional; conditions: Rattus norvegicus;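 further: cell death triggered by IL-1 beta plus TNF-alpha plus IFN-gamma mixture; protective hits raise ATP signal compared with cytokine alone wells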
# [2] = viability loss of HPDE-C7K cells – cell-based, fluorescence, HTS, primary screen (AID 431); type: functional; conditions: Homo sapiens
# [3] = test system: Streptococcus sp. 'group A'; assay: Streptococcus pyogenes SK(-)GAS viability under kanamycin – luminescence, BacTiterGlo, confirmation, counter-screen for streptokinase expression inhibitor project, dose response (AID 1900); type: functional, organism-based
# [4] = viability of PTEN-deleted HCT116 cells – cell-based, HCT116 PTEN knockout, dose response (AID 1047); type: functional;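 further: HCT116 colon tumor cells with PTEN knocked out; cells exposed to compound for 60 hours before readout; potency for loss of cell viability measured by luminescence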
# [5] = viability of HCT116 lacking mutant beta-catenin – cell-based, human colon tumor, dose response (AID 1045); type: functional;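 further: HCT116 colon tumor cells with beta catenin knocked out; cells exposed to compound for 60 hours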
# Galanin receptor type 3 = biological target: T1, Galanin receptor type 3 (Homo sapiens, UniProt O60755); assay: Fluorescence-based cell-based primary high throughput dose response assay to identify antagonists of the Galanin Receptor 3 (GalR3).; type: functional
# T1 sequence (O60755 whole entry): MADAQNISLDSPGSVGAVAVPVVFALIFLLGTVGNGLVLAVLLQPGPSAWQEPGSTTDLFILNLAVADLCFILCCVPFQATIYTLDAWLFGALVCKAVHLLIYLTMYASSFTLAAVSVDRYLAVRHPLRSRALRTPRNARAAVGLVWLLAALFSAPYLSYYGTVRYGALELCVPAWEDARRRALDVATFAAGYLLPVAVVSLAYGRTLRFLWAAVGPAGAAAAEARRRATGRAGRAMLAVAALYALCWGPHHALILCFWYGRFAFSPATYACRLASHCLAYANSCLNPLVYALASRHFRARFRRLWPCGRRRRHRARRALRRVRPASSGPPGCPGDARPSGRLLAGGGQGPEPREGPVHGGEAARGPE
# [6] = biological target: T2, COUP transcription factor 2 (Homo sapiens, UniProt P24468); assay: Luminescence-based cell-based high throughput dose response assay to identify inhibitors of COUP-TFII (NR2F2).; type: functional;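 further: HEK293 cells transiently cotransfected with COUP-TFII expression vector and reporter; luciferase reporter luminescence driven by COUP-TFII from the pX2-168 reporter plasmid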
# T2 sequence (P24468 whole entry): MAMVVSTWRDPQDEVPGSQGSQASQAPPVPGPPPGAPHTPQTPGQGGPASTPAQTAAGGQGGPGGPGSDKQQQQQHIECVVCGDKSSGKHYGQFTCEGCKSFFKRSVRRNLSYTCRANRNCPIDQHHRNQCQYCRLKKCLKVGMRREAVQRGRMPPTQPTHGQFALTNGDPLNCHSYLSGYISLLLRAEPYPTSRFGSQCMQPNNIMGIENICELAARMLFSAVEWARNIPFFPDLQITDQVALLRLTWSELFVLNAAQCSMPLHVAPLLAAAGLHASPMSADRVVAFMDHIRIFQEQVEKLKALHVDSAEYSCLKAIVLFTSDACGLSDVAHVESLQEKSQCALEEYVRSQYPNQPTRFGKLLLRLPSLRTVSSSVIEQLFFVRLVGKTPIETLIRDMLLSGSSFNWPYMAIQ
# [7] = Dd2 malaria parasite growth inhibition potency – SYBR Green, dry powder samples, dose response (AID 1159566); type: functional, cell-based;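 further: potency for growth inhibition with lower SYBR green DNA signal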
# [8] = P. falciparum Dd2 growth inhibitors, dose response, SYBR Green, cherry-picked samples (AID 1159567); type: functional, cell-based
# [9] = growth inhibition of PfATP4-mutant resistant parasites – NITD609-resistant line, SYBR Green, dry powder, dose response (AID 1159571); type: functional, cell-based;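 further: parasites synchronized at ring stage by sorbitol before testing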
# [10] = toxicity to human HepG2 hepatoma cells – cell-based, plate reader, dry powder samples, cytotoxicity control, dose response (AID 1159569); type: functional;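 further: inhibitor potency with signal falling toward the positive control level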
# [11] = growth inhibition of yeast DHODH-expressing 3D7 parasites – SYBR Green, dry powder samples, dose response (AID 1159570); type: functional, cell-based;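 further: parasite growth measured after 72 hours of compound exposure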
# [12] = reduction of Shn3 3'UTR-driven luciferase in osteoblasts – cell-based, Clone20 osteoblasts, firefly luciferase, cherry-picked, dose response (AID 624132); type: functional;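 further: firefly luciferase luminescence from reporter carrying the Shn3 3'UTR in osteoblasts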
# [13] = non-specific 3'UTR reporter inhibition in Clone20-Shn3RL – cell-based, Renilla luciferase, cherry-picked, counter-screen for Shn3 inhibitor project, dose response (AID 624133); type: functional
# [14] = loss of viability in HepG2 cells – cell-based, CellTiter-Glo, cherry-picked, cytotoxicity control for Shn3 inhibitor project, dose response (AID 624134); type: functional
# [15] = cAMP pathway inhibition in counterscreen cell line – TR-FRET cAMP detection, counter-screen for MC4R biased antagonist project, dose response (AID 602305); type: functional, cell-based;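 further: U2OS cells stimulated with forskolin near its EC80 as the cAMP inducer; potency is for inhibition of forskolin-stimulated cAMP signaling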
# Melanocortin receptor 4 = Melanocortin receptor 4 (Homo sapiens, UniProt P32245); assay: inhibitors of MC4R cAMP signaling – cell-based, TR-FRET, biased antagonists, dose response (AID 602298); type: functional;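 further: antagonist potency against agonist-stimulated cAMP production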
# [16] = general cell-killing toxicity readout – plate reader, dry powder samples, cytotoxicity control for PAX8 inhibitor project, dose response (AID 743021); type: functional, cell-based
# Beta Lactamase = Beta Lactamase (Pseudomonas aeruginosa, UniProt Q932Y6); assay: BLA reporter interference, concentration series – BLA reporter cells, FRET fluorescence, artefact control for NOD2-RIPK2 interaction inhibitor project, dose response (AID 651552); type: functional, cell-based
# Paired box protein Pax-8 = Paired box protein Pax-8 (Homo sapiens, UniProt Q06710); assay: PAX8 transcriptional activity inhibition in RMG-I – RMG-I cells, luciferase, cherry-pick, dose response (AID 687027); type: functional, cell-based;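 further: luciferase reporter driven by Pax8 target thyroperoxidase promoter measured by SteadyGlo luminescence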
# [17] = Fluorescence-based cell-based high throughput dose response assay for inhibitors of the interaction of nucleotide-binding oligomerization domain containing 2 (NOD2) and the receptor-interacting serine-threonine kinase 2 (RIPK2).; type: functional; conditions: Homo sapiens
# Caspase-6 = biological target: T3, Caspase-6 (Homo sapiens, UniProt P55212); assay: inhibition of CASP6 peptide cleavage – biochemical, VEID-R110 fluorescence, cherry-pick, dose response (AID 720632)
# T3 sequence (P55212 whole entry): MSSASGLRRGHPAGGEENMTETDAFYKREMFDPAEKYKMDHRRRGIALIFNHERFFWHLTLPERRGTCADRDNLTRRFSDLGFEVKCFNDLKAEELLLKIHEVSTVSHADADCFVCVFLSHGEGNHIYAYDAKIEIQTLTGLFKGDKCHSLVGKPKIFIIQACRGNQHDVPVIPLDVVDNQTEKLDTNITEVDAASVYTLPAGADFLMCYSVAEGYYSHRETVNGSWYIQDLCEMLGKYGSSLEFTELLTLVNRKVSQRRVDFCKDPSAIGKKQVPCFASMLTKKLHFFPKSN
# [18] = HIV-1 AD8 envelope cell-cell fusion blockers – cherry-pick, dose response (AID 652062); type: functional, cell-based;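 further: luciferase signal from cell-cell fusion driven by HIV-1 clade B AD8 Env; potency is for inhibitors of fusion seen as a drop in luminescence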
# [19] = biological target: T4, Short transient receptor potential channel 4 (Mus musculus, UniProt Q9QUQ5); assay: calcium entry via TRPC4 opening agents – cell-based, HEK293 TRPC4/mu-opioid, Fluo-4 calcium, dose response (AID 434937); type: functional
# T4 sequence (Q9QUQ5 whole entry): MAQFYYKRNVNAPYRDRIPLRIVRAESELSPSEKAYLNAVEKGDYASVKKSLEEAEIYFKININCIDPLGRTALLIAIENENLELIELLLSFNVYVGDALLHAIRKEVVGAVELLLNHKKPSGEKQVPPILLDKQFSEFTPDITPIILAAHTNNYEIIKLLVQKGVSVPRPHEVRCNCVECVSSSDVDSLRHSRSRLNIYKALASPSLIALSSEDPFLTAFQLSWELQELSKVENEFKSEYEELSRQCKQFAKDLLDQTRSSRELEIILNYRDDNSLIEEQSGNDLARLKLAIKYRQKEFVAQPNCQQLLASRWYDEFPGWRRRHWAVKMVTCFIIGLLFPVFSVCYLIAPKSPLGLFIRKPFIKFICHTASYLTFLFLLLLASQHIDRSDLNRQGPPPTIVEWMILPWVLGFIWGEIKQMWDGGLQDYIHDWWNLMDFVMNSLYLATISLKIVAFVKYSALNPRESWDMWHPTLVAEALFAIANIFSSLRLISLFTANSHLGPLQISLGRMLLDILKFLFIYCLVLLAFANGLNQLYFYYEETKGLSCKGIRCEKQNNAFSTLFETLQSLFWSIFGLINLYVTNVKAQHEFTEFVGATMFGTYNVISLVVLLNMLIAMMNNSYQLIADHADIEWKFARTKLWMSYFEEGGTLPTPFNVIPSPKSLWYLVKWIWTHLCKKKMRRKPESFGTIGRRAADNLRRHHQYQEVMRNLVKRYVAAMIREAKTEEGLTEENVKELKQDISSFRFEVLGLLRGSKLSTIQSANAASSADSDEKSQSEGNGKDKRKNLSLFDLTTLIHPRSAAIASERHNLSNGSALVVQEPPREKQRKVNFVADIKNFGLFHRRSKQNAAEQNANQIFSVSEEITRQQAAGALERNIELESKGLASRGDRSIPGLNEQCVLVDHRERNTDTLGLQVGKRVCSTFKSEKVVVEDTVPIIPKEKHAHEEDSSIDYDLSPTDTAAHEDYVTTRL
# [20] = HEK-293T viability loss after treatment – luminescence, T-cell screen hits, cytotoxicity control for TCR NF-kB inhibitor project, dose response (AID 489026); type: functional, cell-based;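 further: cells exposed to compound about 14 hours before the viability readout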
# [21] = viability loss in CEM21 cells – cell-based, CellTiter-Glo luminescence, cherry-picked, cytotoxicity control for viral fusion inhibitor project, dose response (AID 652042); type: functional;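 further: potency for signal decrease meaning cytotoxicity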
# [22] = biological target: T5, Ubiquitin-conjugating enzyme E2 N (Homo sapiens, UniProt P61088); type: functional;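 further: Dose-response confirmation in a TR-FRET assay detecting UBC13-driven polyubiquitin chain formation, inhibition measured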
# T5 sequence (P61088 whole entry): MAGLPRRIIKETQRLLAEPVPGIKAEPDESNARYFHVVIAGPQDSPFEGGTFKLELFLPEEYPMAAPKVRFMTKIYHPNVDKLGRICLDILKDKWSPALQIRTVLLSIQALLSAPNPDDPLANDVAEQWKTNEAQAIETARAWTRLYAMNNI
# Paired box protein Pax-8, sequence (Q06710 whole entry, the tested form may be a part): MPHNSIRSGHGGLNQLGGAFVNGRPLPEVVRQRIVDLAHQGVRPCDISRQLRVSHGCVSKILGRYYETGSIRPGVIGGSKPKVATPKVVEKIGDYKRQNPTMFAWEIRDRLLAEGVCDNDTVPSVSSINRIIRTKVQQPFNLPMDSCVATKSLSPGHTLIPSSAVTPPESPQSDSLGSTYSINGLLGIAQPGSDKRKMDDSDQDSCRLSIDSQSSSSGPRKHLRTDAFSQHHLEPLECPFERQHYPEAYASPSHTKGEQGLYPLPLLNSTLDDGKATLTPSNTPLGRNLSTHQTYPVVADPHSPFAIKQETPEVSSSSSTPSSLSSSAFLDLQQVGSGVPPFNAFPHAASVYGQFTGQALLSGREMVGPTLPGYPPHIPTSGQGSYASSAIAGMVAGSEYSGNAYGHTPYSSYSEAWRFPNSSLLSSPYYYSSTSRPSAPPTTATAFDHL
# Beta Lactamase, sequence (Q932Y6 whole entry): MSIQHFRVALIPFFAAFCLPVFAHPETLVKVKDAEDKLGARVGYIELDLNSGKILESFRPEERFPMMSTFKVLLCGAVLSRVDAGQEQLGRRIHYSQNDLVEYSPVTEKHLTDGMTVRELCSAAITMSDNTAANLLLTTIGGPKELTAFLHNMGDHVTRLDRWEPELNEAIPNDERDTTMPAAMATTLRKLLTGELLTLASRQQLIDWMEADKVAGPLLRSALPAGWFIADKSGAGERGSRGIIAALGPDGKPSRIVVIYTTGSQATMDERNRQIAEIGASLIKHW
# Melanocortin receptor 4, sequence (P32245 whole entry): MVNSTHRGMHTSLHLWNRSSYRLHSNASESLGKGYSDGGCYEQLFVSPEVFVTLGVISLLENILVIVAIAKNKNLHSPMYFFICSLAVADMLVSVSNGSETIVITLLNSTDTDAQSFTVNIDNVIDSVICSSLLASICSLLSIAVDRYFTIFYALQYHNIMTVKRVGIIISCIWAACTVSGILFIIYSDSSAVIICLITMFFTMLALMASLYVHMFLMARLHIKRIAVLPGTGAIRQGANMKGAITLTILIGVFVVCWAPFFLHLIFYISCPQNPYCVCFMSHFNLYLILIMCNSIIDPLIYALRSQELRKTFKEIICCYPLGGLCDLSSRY
compound,measurement,setting,value
Oc1ccc(COCc2ccccc2)c2cccnc12,EC50,Streptococcus,3.25 µM (active)
same,EC50,[1],10.4 µM (active)
same,AC50,INS1,1.77 µM (active)
same,EC50,[2],8.49 µM (active)
same,EC50,[3],2.14 µM (active)
O=C(Oc1ccccc1)c1cccc2cccnc12,EC50,[1],5.75 µM (active)
same,EC50,[4],11.3 µM (active)
same,EC50,[5],11.5 µM (active)
same,EC50,[2],> 20 µM (not active)
c1ccc(CNc2ncnc3ccccc23)cc1,IC50,Galanin receptor type 3,2.42 µM (active)
same,IC50,[6],10.3 µM (inactive)
CO[C@H]1CN(C)C(=O)c2ccc(NC(=O)Nc3ccc(C(F)(F)F)cc3)cc2OC[C@H](C)NC[C@H]1C,AC50,[7],2.16 µM (active)
same,AC50,[8],3.01 µM (active)
same,AC50,[9],2.17 µM (active)
same,AC50,[10],26.9 µM (active)
same,AC50,[11],1.37 µM (active)
COc1ccccc1NC(=O)N1CCCCN2[C@H](CO)[C@H](c3ccc(C#Cc4ccccc4)cc3)[C@@H]2C1,AC50,[7],0.118 µM (active)
same,AC50,[8],< 0.3 µM (active)
same,AC50,[9],0.0817 µM (active)
same,AC50,[10],> 100 µM (inactive)
same,AC50,[11],0.0745 µM (active)
COc1ccc(-c2ccccc2[C@H]2[C@@H](C#N)N(C(=O)NC3CCCCC3)[C@H]2CO)cc1,AC50,[7],3.88 µM (active)
same,AC50,[8],3.13 µM (active)
same,AC50,[9],8.21 µM (active)
same,AC50,[10],> 100 µM (inactive)
same,AC50,[11],4.54 µM (active)
CCCCC(=O)O[C@H]1CC[C@H]2[C@@H]3CCc4cc(O)ccc4[C@H]3CC[C@]12C [ESTRADIOL VALERATE],EC50,Streptococcus,2.29 µM (active)
same,EC50,[1],18.9 µM (active)
same,EC50,[2],> 20 µM (not active)
same,EC50,[3],2.3 µM (active)
COc1ccc(NC(=O)COc2ccc(N(C)S(=O)(=O)c3ccc(Cl)cc3)cc2)cc1OC,AC50,[12],1.35 µM (active)
same,AC50,[13],1.81 µM (active)
same,AC50,[14],32.1 µM (active)
same,IC50,[6],6.67 µM (active)
CC(OC(=O)c1ccc(S(C)(=O)=O)c([N+](=O)[O-])c1)C(=O)NC1C2CC3CC(C2)CC1C3 (stereo unspecified),IC50,[15],> 64.6 µM (inactive)
same,IC50,Melanocortin receptor 4,> 64.6 µM (inactive)
same,AC50,[16],22.6 µM (active)
same,AC50,[12],1.4 µM (active)
same,IC50,Beta Lactamase,49.8 µM (inactive)
same,AC50,[13],7.51 µM (active)
same,AC50,[14],8.28 µM (active)
same,AC50,Paired box protein Pax-8,5.88 µM (active)
same,IC50,[17],0.8 µM (active)
CO[C@H]1CN(C)C(=O)c2cc(NC(=O)c3ccccc3F)ccc2OC[C@H](C)N(C(=O)c2ccccc2F)C[C@H]1C,AC50,[7],1.78 µM (active)
same,AC50,[8],2.47 µM (active)
same,AC50,[9],1.53 µM (active)
same,AC50,[10],> 100 µM (inactive)
same,AC50,[11],2.93 µM (active)
COc1cc(C(=O)OCC(=O)N2CCCC2=O)cc(OC)c1C,AC50,Caspase-6,18.5 µM (active)
O=C(Nc1ccncc1)c1ccc(Cl)c(S(=O)(=O)N2CCc3ccccc32)c1,AC50,[18],2.18 µM (active)
same,EC50,[19],5.31 µM (active)
same,AC50,[12],3.19 µM (active)
same,AC50,[13],16.6 µM (active)
same,IC50,[20],62.9 µM (inactive)
same,AC50,[14],6.33 µM (active)
same,AC50,[21],51.1 µM (active)
same,IC50,[6],4.67 µM (active)
COc1cccc(/C=C2/Sc3ccc(C(=O)NCCN4CCCCCC4)cc3NC2=O)c1,AC50,[16],36 µM (active)
same,IC50,[22],> 20 µM (inactive)
same,AC50,Paired box protein Pax-8,10.1 µM (active)
CC(C)CN1C(=O)NC2(CCCc3ccccc32)C1=O (stereo unspecified),AC50,Caspase-6,51.7 µM (active)

# From ChEMBL document CHEMBL1201862, “PubChem BioAssay data set” (2004)
